Common to all, as to assay type: cell-based
One data set concerns the target T1, human BCRP (Homo sapiens, UniProt Q9UNQ0).
T1 sequence (Q9UNQ0 1-655): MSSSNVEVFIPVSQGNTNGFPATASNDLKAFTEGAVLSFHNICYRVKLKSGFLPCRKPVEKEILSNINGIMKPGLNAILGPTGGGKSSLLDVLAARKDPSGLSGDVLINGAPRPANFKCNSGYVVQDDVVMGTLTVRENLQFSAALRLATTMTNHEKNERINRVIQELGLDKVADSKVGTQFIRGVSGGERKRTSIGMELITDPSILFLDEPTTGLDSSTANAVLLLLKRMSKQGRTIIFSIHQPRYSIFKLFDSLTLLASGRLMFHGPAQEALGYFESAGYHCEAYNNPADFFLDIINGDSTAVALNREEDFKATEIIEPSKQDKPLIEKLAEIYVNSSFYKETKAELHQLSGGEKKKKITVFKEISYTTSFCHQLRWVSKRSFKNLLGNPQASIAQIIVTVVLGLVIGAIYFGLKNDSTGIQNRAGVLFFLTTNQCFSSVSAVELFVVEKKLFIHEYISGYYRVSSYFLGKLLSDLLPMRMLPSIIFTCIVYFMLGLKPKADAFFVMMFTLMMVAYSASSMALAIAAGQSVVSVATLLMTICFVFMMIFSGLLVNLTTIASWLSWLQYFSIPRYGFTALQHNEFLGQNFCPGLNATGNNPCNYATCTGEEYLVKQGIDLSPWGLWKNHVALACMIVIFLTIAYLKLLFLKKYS
Description: Polyphenol modulation of BCRP-mediated OTA efflux in MDCK-II cells. The arrangement: host or cells: MDCK-II, transient plasmid transfection. Here is the method:
The concentrations of polyphenols tested were as follows: ECG and miquelianin: 100, 200, 400, 600, 800, 1000 μM; caffeic acid: 50, 100, 500, 1000, 5000, 10,000 μM; luteolin: 0.1, 1, 10, 20, 25, 40, 50, 60, 100, 150 μM; myricetin: 5, 10, 50, 100, 250, 500, 650, 750, 850, 1000 μM. All other assay conditions were as described above. Transport activity was expressed as percent of vehicle control and fitted to a four-parameter logistic model to obtain half-maximal inhibitory concentration (IC50) values (for inhibition) or half-maximal effective concentration (EC50) values (for activation). Three independent experiments, each with technical triplicate, were performed for every compound.
(§1) A p-value < 0.05 was considered statistically significant. For the estimation of IC50 or EC50 values, transport activity data were fitted with the following four-parameter logistic models: V=Bottom+Top−Bottom/1+I/IC50^h for inhibitors V=Bottom+[I]^h×(Top−Bottom)/[I]^h+EC50^h for activators where V is transport activity expressed as a percentage of vehicle control, [I] is inhibitor (or activator) concentration, Top and Bottom are the asymptotic plateaus, IC50 or EC50 is the concentration producing half-maximal inhibition (or activation), and h is the Hill slope. All data analyses were performed using GraphPad Prism version 10.2.3 (GraphPad). Parameter estimates are reported as best-fit ± standard error from three independent experiments, each run in technical triplicate.

The next data set deals with T2, human OAT1 (Homo sapiens, UniProt Q4U2R8).
T2 construct: host or cells: HEK293, stably transfected
T2 sequence (Q4U2R8 1-563): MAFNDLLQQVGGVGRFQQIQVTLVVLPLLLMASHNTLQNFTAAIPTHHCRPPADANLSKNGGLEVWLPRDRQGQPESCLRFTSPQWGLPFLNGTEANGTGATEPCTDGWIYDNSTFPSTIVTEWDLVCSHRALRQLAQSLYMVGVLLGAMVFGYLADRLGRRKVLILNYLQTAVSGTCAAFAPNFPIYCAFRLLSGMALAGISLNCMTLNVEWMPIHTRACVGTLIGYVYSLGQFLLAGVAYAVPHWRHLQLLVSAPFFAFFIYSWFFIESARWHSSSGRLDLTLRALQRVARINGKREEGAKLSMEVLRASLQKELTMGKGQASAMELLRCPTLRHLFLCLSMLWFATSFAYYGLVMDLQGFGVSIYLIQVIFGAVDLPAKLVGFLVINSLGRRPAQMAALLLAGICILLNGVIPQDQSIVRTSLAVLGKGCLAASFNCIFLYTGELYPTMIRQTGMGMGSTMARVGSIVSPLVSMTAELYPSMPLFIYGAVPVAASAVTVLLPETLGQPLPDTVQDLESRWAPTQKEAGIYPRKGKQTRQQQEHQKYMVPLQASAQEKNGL
Description: Polyphenol inhibition of OAT1-mediated OTA uptake in HEK293 cells. As to conditions: for OTA uptake, fraction of vehicle control: polyphenol 10 μM, 300 nM OTA, 5 min. On the procedure: (§2) Because OATP1A2 is expressed at exceptionally low levels in the apical membrane of the kidney as well as in the liver and intestine, interaction studies focused on OAT1, OAT3, OAT4, and BCRP as these will have a greater impact on circulating polyphenol levels. […] Uptake assays were performed in three independent experiments, each in technical triplicate.
as §1

Another data set concerns the target T3, OAT4 (Homo sapiens, UniProt Q9NSA0).
T3 sequence (Q9NSA0 1-550): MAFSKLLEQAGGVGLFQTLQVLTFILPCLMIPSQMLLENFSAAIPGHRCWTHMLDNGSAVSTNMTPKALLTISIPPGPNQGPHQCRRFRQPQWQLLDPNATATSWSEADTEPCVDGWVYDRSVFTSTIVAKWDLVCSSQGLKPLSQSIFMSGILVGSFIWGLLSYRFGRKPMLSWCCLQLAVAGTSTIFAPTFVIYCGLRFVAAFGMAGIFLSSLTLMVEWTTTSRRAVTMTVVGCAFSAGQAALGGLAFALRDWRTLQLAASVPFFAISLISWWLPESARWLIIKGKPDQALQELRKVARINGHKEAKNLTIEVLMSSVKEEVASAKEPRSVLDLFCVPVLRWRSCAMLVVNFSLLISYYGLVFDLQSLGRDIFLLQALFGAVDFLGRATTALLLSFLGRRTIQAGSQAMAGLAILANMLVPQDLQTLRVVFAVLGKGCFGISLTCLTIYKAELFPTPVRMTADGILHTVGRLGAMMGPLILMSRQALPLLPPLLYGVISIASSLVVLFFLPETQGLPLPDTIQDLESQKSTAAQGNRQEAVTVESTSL
The data set is described as follows: Polyphenol inhibition of OAT4-mediated OTA uptake in HEK293 cells. The arrangement: host or cells: HEK293, stably transfected. The settings on record: polyphenol 10 μM, 300 nM OTA, 5 min. Here is the method: as §2, §1

In another data set the target is T4, OAT3 (Homo sapiens, UniProt Q8TCC7).
T4 sequence (Q8TCC7 1-542): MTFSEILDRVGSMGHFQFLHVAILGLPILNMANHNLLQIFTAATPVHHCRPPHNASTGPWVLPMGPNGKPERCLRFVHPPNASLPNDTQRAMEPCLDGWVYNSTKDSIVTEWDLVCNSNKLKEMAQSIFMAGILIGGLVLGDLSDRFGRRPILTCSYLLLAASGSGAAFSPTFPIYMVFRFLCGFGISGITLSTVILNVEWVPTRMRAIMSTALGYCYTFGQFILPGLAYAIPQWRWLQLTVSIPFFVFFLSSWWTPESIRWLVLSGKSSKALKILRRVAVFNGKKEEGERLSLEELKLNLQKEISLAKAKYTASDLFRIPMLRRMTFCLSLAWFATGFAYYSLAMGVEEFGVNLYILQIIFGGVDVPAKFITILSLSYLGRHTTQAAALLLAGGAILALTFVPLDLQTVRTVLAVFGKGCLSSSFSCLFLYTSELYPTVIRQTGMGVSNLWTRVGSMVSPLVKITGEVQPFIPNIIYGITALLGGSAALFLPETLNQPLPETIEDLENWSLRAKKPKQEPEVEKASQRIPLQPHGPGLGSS
Description: Polyphenol inhibition of OAT3-mediated OTA uptake in HEK293 cells. As to conditions: for OTA uptake, fraction of vehicle control: polyphenol 10 μM, 300 nM OTA, 5 min. The arrangement: host or cells: HEK293, stably transfected. On the procedure:
as §2, §1

Read-outs that look alike come from different tables or passages of the source.

The text below walks through data of PMC12655426 (Pharmaceutics, 2025).

With `O=C(O)/C=C/c1ccc(O)c(O)c1` [caffeic acid], the EC50 on human BCRP turned out to be 714 µM. Also, on human BCRP (300 nM OTA), the “maximal stimulation of BCRP-mediated OTA efflux” value is “around 2 fold of control”. Moreover, the “OTA uptake, fraction of vehicle control” value at human OAT1, on OAT4 and at OAT3 was “did not significantly inhibit” each time.
Turning to quercetin 3-O glucuronide [Miquelianin], at human BCRP (300 nM OTA, 100 to 1000 μM), the “effect on BCRP-mediated OTA transport” value was “no appreciable inhibition or activation”. Besides, the “OTA uptake, fraction of vehicle control” value at human OAT1 was “no significant effects”; on OAT4, “no significant effects”; at OAT3, 0.58 fold of vehicle control.
In turn, `O=c1cc(-c2ccc(O)c(O)c2)oc2cc(O)cc(O)c12` [luteolin] gave an IC50 on human BCRP of 22 µM. The “decrease of OAT1-mediated OTA uptake” value on human OAT1 (10 µM) came out at 72%. Also, the “OTA uptake, fraction of vehicle control” value on human OAT1 was 0.28 fold of vehicle control; on OAT4, 0.7 fold of vehicle control; on OAT3, 0.36 fold of vehicle control. At OAT3 (10 µM), the “decrease of OAT3-mediated OTA uptake” value stood at 64%.
`O=c1c(O)c(-c2cc(O)c(O)c(O)c2)oc2cc(O)cc(O)c12` [myricetin] gave an IC50 against human BCRP of 425 µM. Also, the results for the “OTA uptake, fraction of vehicle control” value on human OAT1, on OAT4 and at OAT3 were 0.73 fold of vehicle control, 0.82 fold of vehicle control and 0.74 fold of vehicle control, respectively.
In the case of `O=C(O[C@@H]1Cc2c(O)cc(O)cc2O[C@@H]1c1ccc(O)c(O)c1)c1cc(O)c(O)c(O)c1` [ECG, (-)-Epicatechin-3-O-gallate], on human BCRP (read-out: IC50, inhibition of BCRP-mediated OTA transport, 300 nM OTA, efflux ratio as % of vehicle control), the IC50 came to 495 µM. Further, the “OTA uptake, fraction of vehicle control” value at human OAT1, on OAT4 and on OAT3 was “did not significantly inhibit” in each case.

For orientation: EC50 means the concentration at which the effect is half-maximal. Lower therefore signals higher potency in that assay. In general, IC50 refers to the midpoint of a concentration-inhibition curve.
